What was measured:
[1] = system: Human Skeletal Muscle Myoblasts (HSMM); test: HSMM proliferation, BrdU incorporation; format: cell-based; conditions: 48 hours; A5 significant (P<0.1) at doses of 10 ng/ml and below; IGF-I alone 0.1, 10 and 100 ng/ml
Method: (A) Peptide A5: HSMM cells at 500 cells/well. Cultivation was carried out for 24 hours in 10% FCS, followed by two washes in serum free medium, stimulation for 48 hours and then treatment with BrdU for 5 hours. Concentrations of 0.1, 1, 10, 100 and 500 ng/ml of peptide A5 were tested, along with 0.1, 1, 10 and 100 ng/ml IGF-I. BrdU incorporation was measured to assess the level of cell proliferation achieved. Controls containing medium only, no cells (BLK), background staining (BG) and 10% FBS were also provided. Values on the Y-axis are for fluorescence (absorbence at 370 nm; mean plus standard error across 4 wells). The first five columns relate to peptide A5 at concentrations of 0.1, 1, 10, 100 and 500 ng/ml. The next column relates to the control containing medium only. The next three relate to IGF-I (See Example 1.5) alone at concentrations of 100, 10 and 0.1 ng/ml. The next three relate to controls containing 10% FBS, background staining and no cells respectively. * means P<0.05 compared to medium only control.
(§1) (B) Peptide AS: HSMM cells at 500 cells/well. […] Concentrations of 0.1, 1, 10, 100 and 500 ng/ml of peptide AS in combination with 2 ng/ml IGF-I were tested, along with 0.1, 1, 10 and 100 ng/ml IGF-I. BrdU incorporation was measured to assess the level of cell proliferation achieved. […] Values on the Y-axis are for fluorescence (absorbence at 370 nm; mean plus standard error across 4 wells). […]
as §1, with “(A)” for “(B)”, “AS” for “AS in combination with 2 ng/ml IGF-I”
(B) Peptide A5: HSMM cells at 500 cells/well. […] Concentrations of 0.1, 1, 10, 100 and 500 ng/ml of peptide AS in combination with 2 ng/ml IGF-I were tested, along with 0.1, 1, 10 and 100 ng/ml IGF-I. BrdU incorporation was measured to assess the level of cell proliferation achieved. […]

[2] = system: CA1 hippocampal neurones; test: Gerbil model of brain ischemia, intact CA1 hippocampal neurones; format: in vivo, Mongolian gerbils; conditions: 25 μg injection, 7 days after the insult
Method: Other experiments were carried out using a Gerbil model of brain ischemia.
In the gerbil brain, bilateral ligation of the common carotid arteries invariably produces specific hippocampal lesions: in the CA1 region, pyramidal neurones start to die 3-4 days after ischemia.
Male Mongolian gerbils weighing 50-60 g were used. The ischemic insult was performed by 5 min. ligation of the common carotid arteries under halotane in N2O:O2 (70:30) anaesthesia in strictly controlled normothermic conditions as previously described (Domańiska-Janik et al., 2004). The cerebral blood flow was continuously monitored by laser Doppler flowmetry (Muro, Inc.). […] Sham operated animals were injected with the same dose of the peptide.
The animals were allowed a recovery period of one week, then were perfused with ice-cold 4% paraformaldehyde in PBS under pentobarbital anaesthesia. The histological evaluation was performed on paraffin-embedded and fixed, 10 mm-thick sections stained by hematoxylline/eosine. The extent of cell damage in the CA1 hippocampal region was quantified, under a Zeiss Axioscop 2, as the mean number of the persisted, intact neurons in the coronal sections. At least three defined 300 μm fields of the CA1 region were captured using a MC 10095 camera (Carl Zeiss Jena GmbH) and counted in a computer-assisted image analysis system (KS 300, Carl Zeiss Jena GmbH).

For “IGF-I: IGF-I receptor binding domain encoded by Exons 3 and 4, common to all splice variants, approximately 70 amino acids [reference compound]”, the “proliferation of HSMM (BrdU incorporation), used in isolation” value [1] was “no significant effect”, the “CA1 neurones as % of the control neuronal cell number (side not stated)” value [2] was 15.8% and the “number of CA1 neurones left (side not stated)” value [2] was 19.2±7.3 neurones.

Source: patent publication US20060211606A1, “Peptides” (priority 2005, published 2006)
